Experimental data from patent US9156796B2, “Benzoimidazole-carboxylic acid amide derivatives as APJ receptor modulators” (SANOFI, priority 2013, dated 2015).

biological target: T1, human apelin receptor (Homo sapiens, UniProt P35414); assay: Determination of agonism on the human apelin receptor by a calcium fluorescence assay (FLIPR); assay type: cell-based; conditions: HEK293 cells stably transfected with human apelin receptor and Giaq protein, Fluo-4 calcium fluorescence, read-out: EC50 (APJ agonism)
T1 construct: expressed in transfected cells
T1 sequence (P35414 1-380): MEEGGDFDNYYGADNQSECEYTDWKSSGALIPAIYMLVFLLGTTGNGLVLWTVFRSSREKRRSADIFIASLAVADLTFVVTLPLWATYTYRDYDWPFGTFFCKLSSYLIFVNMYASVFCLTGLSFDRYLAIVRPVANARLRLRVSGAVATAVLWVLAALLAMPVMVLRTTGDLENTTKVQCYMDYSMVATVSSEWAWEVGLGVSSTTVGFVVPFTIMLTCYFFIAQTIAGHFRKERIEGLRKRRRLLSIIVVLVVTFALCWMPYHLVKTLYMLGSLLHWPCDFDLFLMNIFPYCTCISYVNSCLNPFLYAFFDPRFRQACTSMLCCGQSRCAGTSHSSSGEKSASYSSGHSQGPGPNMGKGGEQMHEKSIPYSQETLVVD
Outline: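 HEK293 cells stably co-expressing human apelin receptor and promiscuous Giaq, loaded 1 h at 37 °C with Fluo-4 (4 μM) in probenecid-containing Hepes buffer, pH 7.4. Compounds, at least 7 concentrations in triplicate, added in FLIPR Tetra; peak calcium fluorescence normalized to 1 μM apelin-13 as 100% to derive EC50.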

SMILES | EC50
CCC(CC)n1c(Cc2ccco2)nc2cc(C(=O)NC(CC(=O)O)C(C)C)ccc21 (stereo not drawn) [Example 41, 3-{[1-(1-Ethyl-propyl)-2-furan-2-ylmethyl-1H-benzoimidazole-5-carbonyl]-amino}-4-methyl-pentanoic acid] | 2430 nM
CCC(CC)n1c(Cc2ccco2)nc2cc(C(=O)NC(CC(=O)O)c3ccccc3)ccc21 (stereo not drawn) [Example 42, 3-{[1-(1-Ethyl-propyl)-2-furan-2-ylmethyl-1H-benzoimidazole-5-carbonyl]-amino}-3-phenyl-propionic acid] | 1100 nM
CCC(CC)n1c(CC2CCCC2)nc2cc(C(=O)NC(CC(=O)O)c3ccccc3)ccc21 (stereo not drawn) [Example 43, 3-{[2-Cyclopentylmethyl-1-(1-ethyl-propyl)-1H-benzoimidazole-5-carbonyl]-amino}-3-phenyl-propionic acid] | 14500 nM
CCC(CC)n1c(Cc2cccs2)nc2cc(C(=O)NC(CC(=O)O)C3CCCCC3)ccc21 (stereo not drawn) [Example 44, 3-Cyclohexyl-3-{[1-(1-ethyl-propyl)-2-thiophen-2-ylmethyl-1H-benzoimidazole-5-carbonyl]-amino}-propionic acid] | 258 nM
CCCCC(CC(=O)O)NC(=O)c1ccc2c(c1)nc(Cc1cccs1)n2C(CC)CC (stereo not drawn) [Example 45, 3-{[1-(1-Ethyl-propyl)-2-thiophen-2-ylmethyl-1H-benzoimidazole-5-carbonyl]-amino}-heptanoic acid] | 552 nM
CCC(CC)n1c(Cc2cccs2)nc2cc(C(=O)NC(CC(=O)O)CC3CCCCC3)ccc21 (stereo not drawn) [Example 46, 4-Cyclohexyl-3-{[1-(1-ethyl-propyl)-2-thiophen-2-ylmethyl-1H-benzoimidazole-5-carbonyl]-amino}-butyric acid] | 112 nM
CCC(CC)n1c(Cc2cccs2)nc2cc(C(=O)NC(CC(=O)O)CC(C)(C)C)ccc21 (stereo not drawn) [Example 47, 3-{[1-(1-Ethyl-propyl)-2-thiophen-2-ylmethyl-1H-benzoimidazole-5-carbonyl]-amino}-5,5-dimethyl-hexanoic acid] | 2580 nM
CCC(CC)n1c(Cc2cccs2)nc2cc(C(=O)N[C@@H](CC(=O)O)CC(C)C)ccc21 [Example 48, (R)-3-{[1-(1-Ethyl-propyl)-2-thiophen-2-ylmethyl-1H-benzoimidazole-5-carbonyl]-amino}-5-methyl-hexanoic acid] | 4190 nM
CCC(CC)n1c(Cn2cccn2)nc2cc(C(=O)N[C@H](CC(=O)O)CC(C)C)ccc21 [Example 49, (S)-3-{[1-(1-Ethyl-propyl)-2-pyrazol-1-ylmethyl-1H-benzoimidazole-5-carbonyl]-amino}-5-methyl-hexanoic acid] | 7070 nM
CCC(CC)n1c(Cc2cncs2)nc2cc(C(=O)N[C@H](CC(=O)O)CC(C)C)ccc21 [Example 50, (S)-3-{[1-(1-Ethyl-propyl)-2-thiazol-5-ylmethyl-1H-benzoimidazole-5-carbonyl]-amino}-5-methyl-hexanoic acid] | 205 nM
C[C@@H]1CCCC[C@H]1n1c(Cc2cccs2)nc2cc(C(=O)NC(CC(=O)O)CC3CCCCC3)ccc21 (stereo partly drawn) [Example 51, 4-Cyclohexyl-3-{[1-((1R,2R)-2-methyl-cyclohexyl)-2-thiophen-2-ylmethyl-1H-benzoimidazole-5-carbonyl]-amino}-butyric acid] | 211 nM
C[C@H]1CCCC[C@@H]1n1c(Cc2cccs2)nc2cc(C(=O)NC(CC(=O)O)CC3CCCCC3)ccc21 (stereo partly drawn) [Example 52, 4-Cyclohexyl-3-{[1-((1S,2S)-2-methyl-cyclohexyl)-2-thiophen-2-ylmethyl-1H-benzoimidazole-5-carbonyl]-amino}-butyric acid] | 12300 nM
CC[C@H](C)[C@@H](CC(=O)O)NC(=O)c1ccc2c(c1)nc(Cc1cccs1)n2[C@@H]1CCCC[C@H]1C [Example 53, (3R,4S)-4-Methyl-3-{[1-((1R,2R)-2-methyl-cyclohexyl)-2-thiophen-2-ylmethyl-1H-benzoimidazole-5-carbonyl]-amino}-hexanoic acid] | 48 nM
CCC(CC)n1c(Cc2cccs2)nc2cc(C(=O)N[C@H](CC(=O)O)[C@@H](C)CC)ccc21 [Example 54, (3R,4S)-3-{[1-(1-Ethyl-propyl)-2-thiophen-2-ylmethyl-1H-benzoimidazole-5-carbonyl]-amino}-4-methyl-hexanoic acid] | 115 nM
CCCC(CC(=O)O)NC(=O)c1ccc2c(c1)nc(Cc1cccs1)n2[C@@H]1CCCC[C@H]1C (stereo partly drawn) [Example 55, 3-{[1-((1R,2R)-2-Methyl-cyclohexyl)-2-thiophen-2-ylmethyl-1H-benzoimidazole-5-carbonyl]-amino}-hexanoic acid] | 196 nM
CCCCC(CC(=O)O)NC(=O)c1ccc2c(c1)nc(Cc1cccs1)n2[C@@H]1CCCC[C@H]1C (stereo partly drawn) [Example 56, 3-{[1-((1R,2R)-2-Methyl-cyclohexyl)-2-thiophen-2-ylmethyl-1H-benzoimidazole-5-carbonyl]-amino}-heptanoic acid] | 157 nM
C[C@@H]1CCCC[C@H]1n1c(Cc2cccs2)nc2cc(C(=O)NC(CC(=O)O)C3CCCCC3)ccc21 (stereo partly drawn) [Example 57, 3-Cyclohexyl-3-{[1-((1R,2R)-2-methyl-cyclohexyl)-2-thiophen-2-ylmethyl-1H-benzoimidazole-5-carbonyl]-amino}-propionic acid] | 475 nM
CCCCC(NC(=O)c1ccc2c(c1)nc(Cc1cccs1)n2C(CC)CC)C(C)(C)C(=O)O (stereo not drawn) [Example 58, 3-{[1-(1-Ethyl-propyl)-2-thiophen-2-ylmethyl-1H-benzoimidazole-5-carbonyl]-amino}-2,2-dimethyl-heptanoic acid] | 172 nM
CCC(CC)C(CC(=O)O)NC(=O)c1ccc2c(c1)nc(Cc1cccs1)n2C(CC)CC (stereo not drawn) [Example 59, 4-Ethyl-3-{[1-(1-ethyl-propyl)-2-thiophen-2-ylmethyl-1H-benzoimidazole-5-carbonyl]-amino}-hexanoic acid] | 576 nM
CCC(CC)n1c(Cc2cccs2)nc2cc(C(=O)N[C@H](CC(=O)O)CC3CCCC3)ccc21 [Example 60, (S)-4-Cyclopentyl-3-{[1-(1-ethyl-propyl)-2-thiophen-2-ylmethyl-1H-benzoimidazole-5-carbonyl]-amino}-butyric acid] | 46 nM
C[C@@H]1CCCC[C@H]1n1c(Cc2cccs2)nc2cc(C(=O)N[C@H](CC(=O)O)CC3CCCC3)ccc21 [Example 61, (S)-4-Cyclopentyl-3-{[1-((1R,2R)-2-methyl-cyclohexyl)-2-thiophen-2-ylmethyl-1H-benzoimidazole-5-carbonyl]-amino}-butyric acid] | 75 nM
CCC(CC)n1c(Cc2cccs2)nc2cc(C(=O)NC(CC(C)C)C(C)(C)C(=O)O)ccc21 (stereo not drawn) [Example 62, 3-{[1-(1-Ethyl-propyl)-2-thiophen-2-ylmethyl-1H-benzoimidazole-5-carbonyl]-amino}-2,2,5-trimethyl-hexanoic acid] | 193 nM
CCCC(NC(=O)c1ccc2c(c1)nc(Cc1cccs1)n2C(CC)CC)C(C)(C)C(=O)O (stereo not drawn) [Example 63, 3-{[1-(1-Ethyl-propyl)-2-thiophen-2-ylmethyl-1H-benzoimidazole-5-carbonyl]-amino}-2,2-dimethyl-hexanoic acid] | 343 nM
CCC(CC)n1c(Cc2cccs2)nc2cc(C(=O)NC3(CC(=O)O)CCCCC3)ccc21 [Example 64, (1-{[1-(1-Ethyl-propyl)-2-thiophen-2-ylmethyl-1H-benzoimidazole-5-carbonyl]-amino}-cyclohexyl)-acetic acid] | 176 nM
C[C@@H]1CCCC[C@H]1n1c(Cc2cncs2)nc2cc(C(=O)NC(CC(=O)O)CC3CCCCC3)ccc21 (stereo partly drawn) [Example 65, 4-Cyclohexyl-3-{[1-((1R,2R)-2-methyl-cyclohexyl)-2-thiazol-5-ylmethyl-1H-benzoimidazole-5-carbonyl]-amino}-butyric acid] | 56 nM
C[C@@H]1CCCC[C@H]1n1c(Cc2cccs2)nc2cc(C(=O)NC3(CC(=O)O)CCCCC3)ccc21 [Example 66, (1-{[1-((1R,2R)-2-Methyl-cyclohexyl)-2-thiophen-2-ylmethyl-1H-benzoimidazole-5-carbonyl]-amino}-cyclohexyl)-acetic acid] | 87 nM
CCC(CC)n1c(Cc2cccs2)nc2cc(C(=O)N[C@@H](CC(C)C)[C@@H](O)C(=O)O)ccc21 [Example 67, (2R,3S)-3-{[1-(1-Ethyl-propyl)-2-thiophen-2-ylmethyl-1H-benzoimidazole-5-carbonyl]-amino}-2-hydroxy-5-methyl-hexanoic acid] | 79 nM
CCC(CC)n1c(Cc2cccs2)nc2cc(C(=O)N[C@@H](CC(C)C)[C@H](O)C(=O)O)ccc21 [Example 68, (2S,3S)-3-{[1-(1-Ethyl-propyl)-2-thiophen-2-ylmethyl-1H-benzoimidazole-5-carbonyl]-amino}-2-hydroxy-5-methyl-hexanoic acid] | 18 nM
CC(C)C[C@@H](CCC(=O)O)NC(=O)c1ccc2c(c1)nc(Cc1cccs1)n2C1CCCCC1C(F)(F)F (stereo partly drawn) [Example 69, (R)-6-Methyl-4-{[2-thiophen-2-ylmethyl-1-(2-trifluoromethyl-cyclohexyl)-1H-benzoimidazole-5-carbonyl]-amino}-heptanoic acid] | 339 nM
CC(C)C[C@@H](CCC(=O)O)NC(=O)c1ccc2c(c1)nc(Cc1cccs1)n2[C@@H]1CCCC[C@H]1C [Example 70, (R)-6-Methyl-4-{[1-((1R,2R)-2-methyl-cyclohexyl)-2-thiophen-2-ylmethyl-1H-benzoimidazole-5-carbonyl]-amino}-heptanoic acid] | 179 nM
